Reference: PMC6191185 (Cancer cell, 2018)

Molecular target: T1, CARM1 (co-activator associated arginine methyltransferase 1, PRMT4) (Homo sapiens, UniProt Q86X55)
T1 sequence (Q86X55 2-608): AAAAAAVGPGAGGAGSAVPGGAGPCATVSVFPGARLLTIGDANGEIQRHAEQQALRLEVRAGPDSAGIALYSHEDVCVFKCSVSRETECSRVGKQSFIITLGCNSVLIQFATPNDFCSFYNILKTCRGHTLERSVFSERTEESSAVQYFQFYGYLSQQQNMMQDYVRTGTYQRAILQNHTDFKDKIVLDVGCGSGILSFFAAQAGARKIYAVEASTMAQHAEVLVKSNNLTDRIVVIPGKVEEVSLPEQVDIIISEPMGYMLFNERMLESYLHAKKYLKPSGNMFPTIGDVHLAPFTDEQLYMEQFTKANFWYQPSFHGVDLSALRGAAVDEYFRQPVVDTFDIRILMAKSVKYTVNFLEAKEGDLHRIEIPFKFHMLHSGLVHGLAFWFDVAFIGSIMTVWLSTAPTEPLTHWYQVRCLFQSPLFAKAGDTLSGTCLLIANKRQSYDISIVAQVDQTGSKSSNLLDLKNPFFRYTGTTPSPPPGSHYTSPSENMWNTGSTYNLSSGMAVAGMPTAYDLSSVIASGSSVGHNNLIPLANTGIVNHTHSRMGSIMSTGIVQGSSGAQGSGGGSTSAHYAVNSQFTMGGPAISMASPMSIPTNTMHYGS
Test: cellular CARM1 substrate methylation
Assay type: cell-based

CNC[C@@H](O)COc1ccc(Cl)c(-c2nc(-c3c(C)noc3C)c(C)c(N3Cc4cnc(N5CCC5)nc4C3)n2)c1 [EPZ025654] showed an IC50 of 18 nM.
